Measured values published in patent publication US11439640B2, “Pharmaceutical composition comprising substance inhibiting enzymatic activity of peroxiredoxin 2 as effective ingredient for treatment of colorectal cancer” (EWHA UNIVERSITY-INDUSTRY COLLABORATION FOUNDATION, priority 2017, dated 2022).
Residues, ends and D or L forms follow the SMILES beside them. *: point of attachment. Cbz = O=C(OCc1ccccc1)*

Experiments:
[1] = system: Axin1; test: Axin1 immunoprecipitation, PARsylation and ubiquitination blot; type: cell-based, human; conditions: cells of the control, HT29 and SW480
Procedure: (§1) For immunoprecipitation, purified cell lysates (0.5-1 mg of proteins) were removed in advance with 30 μL of protein-A/G Sepharose 4 Fast Flow beads (Amersham Biosciences) for one hour.
(§2) Supernatants (cultures floating on the surface) were incubated with 3 μg of an appropriate antibody overnight, and then, precipitated by mixing with 30 μL of protein-A/G beads at 4° C. for three hours.
(§3) Then, the beads were washed three times with 1 mL of lysis buffer, followed by in vitro PARP analysis or immunoblotting.

[2] = system: Axin1-related destruction complex; test: Co-immunoprecipitation of Axin1-related destruction complex; type: cell-based, human; conditions: SW480 cells; FIG. 34
Procedure: as §1, §2, §3

[3] = biological target: recombinant TNKS1 PARP domain (amino acids of 1023-1327) (Homo sapiens, UniProt O95271); conditions: incubation with H2O2; FIG. 48
Procedure: (§4) Immunocomplex-bound beads were incubated at 25° C. for 30 minutes in 40 μL of assay buffer (50 mM Tris-HCl, pH 8.0, 4 mM MgCl2) containing 4 μCi of γ-^32[P]-NAD^+. The reaction was stopped by adding 2×SDS sample buffer. The sample was boiled and separated using an SDS denaturing gel.
(§5) The gel was dried under vacuum and radiographed on an imaging plate. Radioactivity recorded on the plate was read and quantified by Fujifilm Bio-imaging Analyzer System (BAS)-3000.

[4] = system: TNKS; conditions: FIG. 40
Procedure: as §4, §5

[5] = biological target: GST-TNKS1 PARP protein (Homo sapiens, UniProt O95271); conditions: 500 μM H2O2 for 30 minutes; FIG. 49
Procedure: Zinc ions were observed using 4-(2-pyridylazo) resorcinol (PAR) in an aqueous solution.
The GST-TANK1 PARP protein was incubated with 500 μM H2O2 for 30 minutes in 200 μL of 40 mM HEPES (pH 7.0) reaction buffer containing 0.1 mM PAR. The formation of a PAR2-Zn^2+ complex was monitored at 500 nm with a UV/VIS spectrophotometer (Agilent).
The total zinc content of the purified GST-TNKS1 PARP protein used in the assay was determined by adding 0.5 mM p-chloromercuribenzoic acid to a reaction mixture.

[6] = biological target: T1, recombinant human PrxI (Homo sapiens, UniProt Q06830); test: Peroxiredoxin (peroxidase) assay, PrxI; type: biochemical
T1 sequence (Q06830 1-199): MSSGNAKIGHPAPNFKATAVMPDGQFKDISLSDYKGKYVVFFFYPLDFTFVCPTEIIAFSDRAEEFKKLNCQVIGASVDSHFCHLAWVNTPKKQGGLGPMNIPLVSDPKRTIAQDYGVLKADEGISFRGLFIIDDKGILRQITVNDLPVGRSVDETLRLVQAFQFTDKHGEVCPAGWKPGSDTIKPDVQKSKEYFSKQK
Procedure: The peroxidase assay was performed in a reaction mixture (200 μL) containing 250 μM NADPH, 1.5 μM yeast TR, 3 μM yeast Trx, a recombinant human Prx (PrxI (4.6 μM) and PrxII (16.4 μM)), and […] (pH 7.0) containing 1 mM EDTA, and […] H2O2.
The mixture (minus H2O2) was preincubated for 5 minutes in the presence or absence of Compounds 1 to 6 (100 μM), and then, the reaction was initiated by adding H2O2. NADPH oxidation was monitored at 30° C. for 5 minutes as the absorbance decreased near 340 nm using an Agilent UV8453 spectrophotometer (Hewlett Packard. USA). The initial reaction rate was calculated using the linear portion of the curve and indicated as the amount of oxidized NADPH per minute.

[7] = system: RKO cells; test: Colony forming assay in RKO cells; type: cell-based, human; conditions: APC wild-type CRC cells
[8] = system: HT29 cells; test: Colony forming assay in HT29 cells; type: cell-based, human; conditions: APC-mutant CRC cells
[9] = system: SW480 cells; test: Colony forming assay in SW480 cells; type: cell-based, human; conditions: APC-mutant CRC cells
[10] = system: tumor xenograft derived from HT29; test: HT29 tumor xenograft in mice (luminescence imaging, tumor weight); type: in vivo, mouse; conditions: intraperitoneal, 286 μM in DMSO, from 6 days after cell injection, every 3 days; FIGS. 65 and 66
Procedure: In the case of a tumor xenograft model, the mice were anesthetized by the inhalation of isoflurane gas (N2O:O2/70%:30%) and subcutaneously injected with HT29-luc2 cells (2.5×10^5 cells) suspended in 200 μL of PBS. Compound 1 to Compound 6 (286 μM in DMSO) were intraperitoneal administered starting from 6 days after the cell injection and repeated every 3 days.
Bioluminescent imaging was performed with IVIS Lumina Series III (Perkin Elmer). For each image photographing session, luciferin suspended in PBS (150 mg of luciferin/kg body weight) was administered intraperitoneally according to the manufacturer's protocol.
Up to four animals were maintained in the integral anesthetic manifold equipment and they were imaged 10 minutes after luciferin injection. The IVIS imaging system collects the photographic images of mice and quantitative bioluminescent signals therefrom and then allows them to overlap with each another.

Chain of recombinant TNKS1 PARP domain (amino acids of 1023-1327) (O95271 1023-1327): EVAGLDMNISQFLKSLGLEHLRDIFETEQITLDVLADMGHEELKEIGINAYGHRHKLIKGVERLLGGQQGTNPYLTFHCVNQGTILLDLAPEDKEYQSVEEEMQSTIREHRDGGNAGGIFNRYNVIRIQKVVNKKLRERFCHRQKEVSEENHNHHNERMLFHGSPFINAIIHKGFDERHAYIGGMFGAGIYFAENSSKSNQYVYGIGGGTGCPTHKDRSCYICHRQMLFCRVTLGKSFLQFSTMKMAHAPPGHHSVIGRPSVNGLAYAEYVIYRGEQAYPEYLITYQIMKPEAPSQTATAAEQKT
Chain of GST-TNKS1 PARP protein (O95271 1023-1327): as above

Structure (SMILES): CC(C)C[C@@H](C=O)NC(=O)[C@H](CC(C)C)NC(=O)[C@H](CC(C)C)NC(=O)OCc1ccccc1 [MG132] (Cbz-Leu-Leu-Leu-aldehyde)
- PARsylated and ubiquitinated Axin1 [1]: induces the accumulation

Structure (SMILES): O=C1Nc2cc(Br)ccc2/C1=C1/Nc2ccccc2/C1=N\O [BIO]
- phospho-β-catenin in the Axin1-related destruction complex [2]: disappeared

Structure (SMILES): OO [Compound H2O2, hydrogen peroxide]
- polyADP-ribosylation activity of TNKS1 PARP domain [3]: fully inactivated
- TNKS activity (PARP) in HT29 cells ([4]; HT29 cells): inhibited
- TNKS activity (PARP) in SW480 cells ([4]; SW480 cells): inhibited
- TNKS1 PARP proteins that lost zinc ions [5]: ≥ 90%

Structure (SMILES): [O-][n+]1c(CBr)c(CBr)[n+]([O-])c2ccccc21 [Compound 6, 2,3-bis(bromomethyl)quinoxaline 1,4-dioxide]
- effect on initial rate of PrxI activity (in words) ([6]; 100 μM compound): not affected
- inhibition at 100 µM ([6]; 100 μM compound, FIG. 63): ~50%
- initial rate of PrxI activity ([6]; group treated with Conoidin A, 100 μM, control 263.7±45.4): 241.7 ± 21 nmol/min
- inhibition of proliferation (colony formation) of RKO cells [7]: not
- inhibition of proliferation (colony formation) of HT29 cells [8]: sufficiently inhibited
- inhibition of proliferation (colony formation) of SW480 cells [9]: sufficiently inhibited
- tumor growth compared to the control [10]: significantly delayed
